{
  "source": "paper PMC7955127",
  "about": "“Preclinical small molecule WEHI-7326 overcomes drug resistance and elicits response in patient-derived xenograft models of human treatment-refractory tumors” (Cell Death & Disease, 2021)",
  "key": {"SW480": {"test_system": "SW480", "experiment": "Cell cycle analysis (G2/M arrest, PI staining, flow cytometry), SW480", "assay_type": "cell-based, human", "method": "Fig. 2 Antimitotic activity of WEHI-7326: cancer cell lines and effects on tubulin polymerization. a Dose-dependent antimitotic activity of WEHI-7326, nocodazol and taxol in tumor cell lines SW480 (colorectal) and MDA-MB-231 (breast). Data are presented as percentage of cells in G2/M after overnight incubation with increasing concentrations of inhibitors and PI staining followed by flow cytometry analysis. Mean average of 3 independent experiments ±SEM. b EC50 values (nM) for G2/M arrest on SW480 and MDA-MB-231 cell lines, given as mean average of 3 independent experiments ±SEM. c Western blot analysis of mitotic arrest in SW480 and MDA-MB-231 cells treated with EC50 concentrations of WEHI-7326 or Paclitaxel as marked by expression of phosho-S10 Histone H3 (p-HH3 S10), at different timepoints post treatment. Expression of β-actin provided as loading control. d Cell cycle analysis of LIM1899 cells 72 h post treatment with increasing concentrations of WEHI-7326 as measured by PI staining for DNA content followed by flow cytometry analysis. Sub-G1 represents apoptotic fractions and >4 N cell fractions of mitotic slippage. e Immunofluorescence confocal microscopy of tubulin polymerization in SW480 cells treated by various agents. Cells were incubated for 24 h with control (0.1% DMSO), nocodazole (1 μM), paclitaxel (1 μM), myoseverin B (1 μM) or WEHI-7326 (1 μM). Cells were fixed and stained with β-tubulin antibody (green) and DAPI (DNA; blue) and phalloidin (actin, red). Shown are single confocal sections and enlarged areas (3x) to highlight changes in microtubule network; scale bar = 20 μm. Representative images from 2 independent experiments. f Cellular tubulin polymerization assay in cells: SW480 cells were incubated overnight with paclitaxel, myoseverin B or WEHI-7326, then processed to detect fractions of polymerized (P) and soluble (S) tubulin by western blot analysis. Representative blot of 3 independent experiments. g Tubulin polymerization was assessed in vitro over time using a fluorescence-based tubulin polymerization assay (BK011P). Tubulin was incubated with control (DMSO), paclitaxel (3 μM), nocodazole (15 μM) and WEHI-7326 at indicated concentrations (in DMSO). Polymerization was measured by excitation at 360 nm and emission at 420 nm. Representative graph of 3 independent experiments performed in duplicates. […]\nCells in log growth were supplemented with fresh medium with either vehicle (control) or compound at the stated final concentrations. […] After 1 h incubation at room temperature in the dark, cells were analyzed on a FACScan (Becton and Dickinson) in CellQuest. The percentage of cells in each phase of the cell cycle was determined using ModFit software (Verity, http://www.vsh.com). Early and late apoptotic responses elicited by WEHI-7326 were assessed using Dead Cell Apoptosis Kit (ThermoFisher Scientific) with Annexin V FITC and PI following manufacturer’s instructions. Cells were incubated 24 h with 6-point, 4-fold titration of WEHI-7326, washed twice with cold 1X PBS, resuspended in 1X Annexin Binding Buffer, incubated with FITC Annexin V and PI for 15 mins at RT in the dark and subsequently analyzed by flow cytometry."}, "[1]": {"test_system": "U87MG-(Δ2–7) (glioblastoma) xenograft", "experiment": "U87MG-(Δ2–7) tumor xenograft in nude mice", "assay_type": "in vivo, BALB/c nude mice", "conditions": "U87MG-(Δ2–7) xenograft, i.p. three times weekly", "method": "Tumor cell lines LIM2537, U87MGΔ2–7EGFR or H1437 were collected by trypsinization, counted and injected at 5 × 10^6 cells/ site subcutaneously on both flanks of BALB/c nude mice. Treatment with vehicle control or WEHI-7326 at given dose was initiated after 5 days. Drug or vehicle (100 μl) was injected intraperitoneally three times weekly. Control group and treatment group consisted of 8 mice each. Tumors were measured twice weekly with calipers. Tumor volumes were estimated using the modified ellipsoid formula V = 1/2 (length × width^2). The experiments were terminated when tumors in the control group started ulcerating or exceeded 17 mm in length, in line with the LICR/DoS Animal Ethics Committee guidelines (11/05 A)."}, "134111 HGSOC PDX": {"test_system": "134111 HGSOC PDX", "experiment": "HGSOC post-chemo PDX model 134111", "assay_type": "in vivo, NSG mice", "conditions": "134111 post-taxane, cisplatin-refractory PDX; 20 mg/kg i.v. twice a week, 6 weeks", "method": "Two to three mm ovarian tumor fragments were subcutaneously engrafted in the left flank of NSG mice and monitored by physical palpation for tumor growth and engraftment. Engrafted tumors were measured twice a week using digital Vernier calipers and maximum tumor diameter + perpendicular tumor length were digitally recorded into the Study Director software (v 3.0/4.0 StudyLog). Tumor volume was calculated automatically (tumor volume (mm^3) = 0.5236 x [larger diameter (mm) x smaller diameter (mm)^2]). Mice were randomized to treatment once their tumor volume reach 180–300 mm^3 and tumor measurements were performed twice a week up to 120 days or when the tumor volume reaches 700 mm^3.\nTime to progressive disease (PD): Defined as the time (in days) from beginning of treatment to an increase in average tumor volume of >20% from the nadir (taken as the smallest average tumor volume recorded since treatment started or 200 mm^3 if nadir was <200 mm^3 as lesions smaller than this are difficult to measure with accuracy). Median time to harvest (TTH): Defined as the time (in days) from the beginning of treatment to day of harvest at 700 mm^3 and the median TTH was calculated and plotted using Kaplan-Meier curves. Based on ref. [27]. […]"}},
  "data": [
    {"smiles": "COc1ccc(CNc2nc(NCc3ccc(CN)cc3)nc(NN3CC(=O)NC3=O)n2)cc1", "note": "[WEHI-7326]", "values": [
      {"measurement": "EC50", "setting": "SW480; Homo sapiens, SW480, read-out: EC50 (G2/M arrest)", "result": "98 ± 10", "unit": "nM"},
      {"measurement": "G2/M cell cycle arrest", "setting": "SW480; SW480", "result": "strong G2/M cell cycle arrest"},
      {"measurement": "Tumor growth", "setting": "[1]", "result": "effective in reducing tumor growth"},
      {"measurement": "Tumor response", "setting": "134111 HGSOC PDX", "result": "ineffective"}
    ]}
  ]
}
